The results in this text go back to the supplement of paper PMC10307832.

Holding throughout (test): relative viability (nuclei count vs DMSO), 5 days (fraction); higher = more cells survive
Compound in assay [1]: C1CN(CCN1)C2=CC=C(C=C2)C3=CN4C(=C(C=N4)C5=CC=NC6=CC=CC=C56)N=C3 [DM3189]
The procedure, abridged:
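A plate was accepted only when its control CV was below 25% and the cells had doubled at least once. Viability is defined from nuclear counts as treated wells divided by vehicle wells, with the median taken across plates. That median covers lung cancer cell lines grown in 1536-well plates, dosed by pinning at five √10-spaced library-drug concentrations, and counted in MetaXpress from 4× Hoechst images after 5 days.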

Compound in assay [2]: C1CN(CCN1)C2=CC=C(C=C2)C3=CN4C(=C(C=N4)C5=CC=NC6=CC=CC=C56)N=C3 [DM3189] + CS(=O)(=O)CCNCc1ccc(-c2ccc3ncnc(Nc4ccc(OCc5cccc(F)c5)c(Cl)c4)c3c2)o1 [Lapatinib] (partner 2 µM)
The procedure, abridged: (§1)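 Lung cancer cell lines, seeded in 1536-well plates, were treated the following day by pin tool with a single drug or with five library-drug doses (not always all listed) in √10 steps on top of a fixed anchor-drug dose. Cells were fixed and nuclei stained in one step after 5 days, and nuclei were counted. Relative viability is the nuclei count for treated wells divided by that for vehicle wells, reported as medians of duplicate plates.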

Compound in assay [3]: C1CN(CCN1)C2=CC=C(C=C2)C3=CN4C(=C(C=N4)C5=CC=NC6=CC=CC=C56)N=C3 [DM3189] + O=C(CCCCCCC(=O)Nc1ccccc1)NO [Vorinostat] (partner 1 µM)
The procedure, abridged:
as §1

Compound in assay [4]: C1CN(CCN1)C2=CC=C(C=C2)C3=CN4C(=C(C=N4)C5=CC=NC6=CC=CC=C56)N=C3 [DM3189] + CC(=O)Nc1cccc(-n2c(=O)n(C3CC3)c(=O)c3c(Nc4ccc(I)cc4F)n(C)c(=O)c(C)c32)c1 [Trametinib] (partner 0.02 µM)
An outline of the steps: as §1

Compound in assay [5]: C1CN(CCN1)C2=CC=C(C=C2)C3=CN4C(=C(C=N4)C5=CC=NC6=CC=CC=C56)N=C3 [DM3189] + NC(=O)Nc1cc(-c2cccc(F)c2)sc1C(=O)N[C@H]1CCCNC1 [AZD7762] (partner 0.2 µM)
The procedure, abridged:
as §1

On to NCI-H2023, for which the relative viability in assay [1] (0.08 µM) was 1; in assay [1] (0.253 µM), 0.955; in assay [1] (0.8 µM), 0.978; in assay [1] (2.53 µM), 0.854; in assay [2] (first compound 0.08 µM) it was 1.1; in assay [2] (first compound 0.253 µM), 0.739. The relative viability in assay [2] (first compound 0.8 µM) was 0.503; in assay [2] (first compound 2.53 µM), 0.286; in assay [3] (first compound 0.08 µM), 0.688; in assay [3] (first compound 0.253 µM), 0.618; in assay [3] (first compound 0.8 µM), 0.603; in assay [3] (first compound 2.53 µM) it was 0.604. Further, the relative viability in assay [4] (first compound 0.08 µM) was 0.469; in assay [4] (first compound 0.253 µM) it was 0.534; in assay [4] (first compound 0.8 µM) it was 0.532; in assay [4] (first compound 2.53 µM) it was 0.374.
Take SW 1573: the relative viability in assay [1] (0.08 µM) is 1.06; in assay [1] (0.253 µM), 0.938; in assay [1] (0.8 µM), 0.903; in assay [1] (2.53 µM), 0.81; in assay [2] (first compound 0.08 µM), 1.1; in assay [2] (first compound 0.253 µM) it was 0.944. Moreover, the relative viability in assay [2] (first compound 0.8 µM) was 1.16; in assay [2] (first compound 2.53 µM), 1.23; in assay [3] (first compound 0.08 µM), 0.786; in assay [3] (first compound 0.253 µM) it was 0.761; in assay [3] (first compound 0.8 µM) it was 0.633; in assay [3] (first compound 2.53 µM), 0.337. For the same cell line, the relative viability in assay [4] (first compound 0.08 µM) came out at 0.677; in assay [4] (first compound 0.253 µM), 0.6; in assay [4] (first compound 0.8 µM), 0.53; in assay [4] (first compound 2.53 µM) it was 0.539.
As for ABC-1, the relative viability in assay [1] (0.08 µM) was 1.12; in assay [1] (0.253 µM), 0.847; in assay [1] (0.8 µM), 0.752; in assay [1] (2.53 µM), 0.829; in assay [2] (first compound 0.08 µM), 1.3; in assay [2] (first compound 0.253 µM), 1.06. The relative viability came to 0.931 in assay [2] (first compound 2.53 µM); 0.914 in assay [5] (first compound 0.08 µM); 0.679 in assay [5] (first compound 0.253 µM); 0.742 in assay [5] (first compound 0.8 µM); 1.06 in assay [5] (first compound 2.53 µM); 1.53 in assay [3] (first compound 0.08 µM). Besides, the results for the relative viability in assay [3] (first compound 0.253 µM), in assay [3] (first compound 0.8 µM) and in assay [3] (first compound 2.53 µM) were 0.9, 1.04 and 0.907, respectively.
Take NCI-H1703: the relative viability in assay [1] (0.08 µM) was found to be 0.951; in assay [1] (0.253 µM) it was 0.916; in assay [1] (0.8 µM) it was 0.825; in assay [1] (2.53 µM) it was 0.767; in assay [2] (first compound 0.08 µM), 1.2; in assay [2] (first compound 0.253 µM) it was 1.15. Further, the relative viability in assay [2] (first compound 0.8 µM) is 1.17; in assay [2] (first compound 2.53 µM) it was 1.14; in assay [5] (first compound 0.08 µM) it was 0.122; in assay [5] (first compound 0.253 µM), 0.191; in assay [5] (first compound 0.8 µM), 0.119; in assay [5] (first compound 2.53 µM) it was 0.135.
Take COR-L 105: the relative viability in assay [1] (0.08 µM) was 1.22; in assay [1] (0.253 µM) it was 0.95; in assay [1] (0.8 µM) it was 0.853; in assay [1] (2.53 µM), 0.808; in assay [2] (first compound 0.08 µM), 0.432; in assay [2] (first compound 0.253 µM) it was 0.362. The relative viability in assay [2] (first compound 0.8 µM) was found to be 0.312; in assay [2] (first compound 2.53 µM), 0.281; in assay [3] (first compound 0.08 µM), 0.867; in assay [3] (first compound 0.253 µM) it was 0.73; in assay [3] (first compound 0.8 µM), 0.835; in assay [3] (first compound 2.53 µM), 0.803. Further, the relative viability was 0.467 in assay [4] (first compound 0.08 µM), 0.488 in assay [4] (first compound 0.253 µM), 0.471 in assay [4] (first compound 0.8 µM) and 0.504 in assay [4] (first compound 2.53 µM).
With NCI-H1650, the relative viability in assay [1] (0.08 µM) is 1.09; in assay [1] (0.253 µM), 0.923; in assay [1] (0.8 µM) it was 0.901; in assay [1] (2.53 µM), 0.928; in assay [2] (first compound 0.08 µM), 0.838; in assay [2] (first compound 0.253 µM) it was 0.806. In addition, the relative viability in assay [2] (first compound 0.8 µM) is 0.71; in assay [2] (first compound 2.53 µM), 0.777; in assay [3] (first compound 0.08 µM) it was 0.505; in assay [3] (first compound 0.253 µM), 0.539; in assay [3] (first compound 0.8 µM) it was 0.638; in assay [3] (first compound 2.53 µM) it was 0.644. Also, the relative viability came to 0.749 in assay [4] (first compound 0.08 µM), 0.608 in assay [4] (first compound 0.253 µM), 0.677 in assay [4] (first compound 0.8 µM) and 0.738 in assay [4] (first compound 2.53 µM).
For UMC-11, the relative viability in assay [1] (0.08 µM) is 1.05; in assay [1] (0.253 µM), 0.958; in assay [1] (0.8 µM), 0.816; in assay [1] (2.53 µM), 0.795; in assay [2] (first compound 0.08 µM) it was 1.2; in assay [2] (first compound 0.253 µM), 1.04. For the same cell line, the relative viability was determined as 0.868 in assay [2] (first compound 0.8 µM); 0.751 in assay [2] (first compound 2.53 µM); 0.356 in assay [3] (first compound 0.08 µM); 0.349 in assay [3] (first compound 0.253 µM); 0.358 in assay [3] (first compound 0.8 µM); 0.281 in assay [3] (first compound 2.53 µM). The relative viability came out at 0.745 in assay [4] (first compound 0.08 µM), 0.706 in assay [4] (first compound 0.253 µM), 0.59 in assay [4] (first compound 0.8 µM) and 0.62 in assay [4] (first compound 2.53 µM).
For LCLC-103H, the relative viability in assay [1] (0.08 µM) amounted to 1.06; in assay [1] (0.253 µM), 0.935; in assay [1] (0.8 µM) it was 0.951; in assay [1] (2.53 µM), 1.02; in assay [5] (first compound 0.08 µM) it was 0.909; in assay [5] (first compound 0.253 µM), 0.817. For the same cell line, the relative viability in assay [5] (first compound 0.8 µM) stood at 0.764; in assay [5] (first compound 2.53 µM), 0.818; in assay [3] (first compound 0.08 µM) it was 0.816; in assay [3] (first compound 0.253 µM), 0.8; in assay [3] (first compound 0.8 µM), 0.734; in assay [3] (first compound 2.53 µM) it was 0.744. In addition, the relative viability in assay [4] (first compound 0.08 µM) was found to be 0.748; in assay [4] (first compound 0.253 µM), 0.653; in assay [4] (first compound 0.8 µM), 0.685; in assay [4] (first compound 2.53 µM), 0.681.
With NCI-H2342, the relative viability was found to be 0.988 in assay [1] (0.08 µM); 0.99 in assay [1] (0.253 µM); 0.948 in assay [1] (0.8 µM); 0.97 in assay [1] (2.53 µM); 0.44 in assay [5] (first compound 0.08 µM); 0.533 in assay [5] (first compound 0.253 µM). The relative viability in assay [5] (first compound 0.8 µM) was determined as 0.54; in assay [5] (first compound 2.53 µM), 0.478; in assay [3] (first compound 0.08 µM), 0.702; in assay [3] (first compound 0.253 µM) it was 0.692; in assay [3] (first compound 0.8 µM) it was 0.843; in assay [3] (first compound 2.53 µM) it was 0.668. Besides, the relative viability in assay [4] (first compound 0.08 µM) turned out to be 0.805; in assay [4] (first compound 0.253 µM), 0.843; in assay [4] (first compound 0.8 µM), 0.844; in assay [4] (first compound 2.53 µM), 0.74.
